In paper PMC12692968, “Design, Synthesis, Molecular Docking, and Anticancer Activity of Chalcone Derivatives as VEGFR-2 Inhibitors” (Molecules, 2025):
Read-outs that look alike come from different tables or passages of the source.

Key:
[1] = test system: human cervical squamous cell carcinoma cell line SiHa; test: CCK-8 cytotoxicity assay, SiHa cells; format: cell-based; conditions: CCK-8, 48 h incubation, mean ± SD, n = 3
Experimental: (§1) The SiHa, K562, B16 and HK-2 cells were obtained from Wuhan Pricella Biotechnology Co., Ltd. (Wuhan, China). […] 2–5 × 10^3 cells were added to each well of a 96-well plate and incubated for 12 h, followed by the addition of the tested compounds. After incubation for 48 h, 10 μL of the CCK-8 solution was added to each well and incubated for another 2 h. The absorbance of each well was measured at 450 nm using an enzyme-linked immunosorbent assay (ELISA) reader. The experiments were replicated three times. The inhibition rate of cancer cells was calculated using the Formula (1). The half-maximal inhibitory concentration (IC50) value was calculated using GraphPad Prism 8.0 software.

[2] = test system: human chronic myeloid leukemia cell line K562; test: CCK-8 cytotoxicity assay, K562 cells; format: cell-based; conditions: CCK-8, 48 h incubation, mean ± SD, n = 3
Experimental: as §1

[3] = test system: mouse melanoma cell line B16; test: CCK-8 cytotoxicity assay, B16 cells; format: cell-based; conditions: CCK-8, 48 h incubation, mean ± SD, n = 3
Experimental: as §1

[4] = CCK-8 cytotoxicity assay, HK-2 cells; format: cell-based, human
Experimental: as §1, with “The cytotoxicity of synthesized compounds against HK-2 cells was also detected. […] The SiHa,” for “The SiHa,”

[5] = test system: human renal epithelial cell line HK-2; test: CCK-8 cytotoxicity assay, HK-2 cells; format: cell-based; conditions: Homo sapiens, Epithelial cell; CCK-8, 48 h incubation, mean ± SD, n = 3
Experimental: as §1, with “The cytotoxicity of synthesized compounds against HK-2 cells was also detected. […] The SiHa,” for “The SiHa,”

[6] = target: T1, VEGFR-2 (KDR) protein kinase (Homo sapiens, UniProt P35968); test: VEGFR-2 (KDR) Kinase Assay Kit enzyme inhibition assay; format: biochemical; conditions: Kinase-Glo MAX, 30 °C 45 min, mean ± SD, n = 3
T1 construct: purchased BPS Biosciences, San Diego, CA, USA
Experimental: Many studies have shown that abnormal VEGFR-2 signaling could induce proliferation of cervical squamous cell carcinoma cells, myeloid leukemia cancer cells, and melanoma cells. […] A VEGFR-2 (KDR) Kinase Assay Kit (BPS Biosciences, San Diego, CA, USA) was used to conduct a VEGFR-2 inhibition assay following the manufacturer’s protocol. Briefly, kinase buffer and ATP and PTK substrate (Poly-Glu,Tyr 4:1) were diluted with distilled water to prepare a master mix solution. The master mix solution, test sample, and VEGFR-2 (KDR) protein kinase (2 ng/μL) were added to a 96-well plate and incubated at 30 °C for 45 min. After incubation, Kinase-Glo™ MAX (BPS Biosciences) reagent was added to each well, and incubated for 15 min at room temperature. Then it was immediately detected with an ELISA reader. The experiments were replicated three times.

K562 cells [7] = test: Annexin V apoptosis assay by flow cytometry; format: cell-based, human
From the text: Enhancing apoptotic cell death is a crucial way for anticancer drugs to eliminate cancer cells.
The sample was centrifuged to isolate the cells and the kit instructions were followed for subsequent processing. Finally, apoptosis was quantified using a flow cytometer (Cytek Northern Light 3 Laser 16V-14B-8R, Wuxi, China). The experiments were replicated three times.

K562 cells [8] = test: Cell cycle analysis, PI staining, flow cytometry; format: cell-based, human; conditions: 5 μM, 24 h
Experimental: Cytotoxic compounds often inhibit cell proliferation by arresting the cell cycle at a specific phase.
The sample was then centrifuged (2000 rpm for 5 min), and the supernatant was aspirated. The fixed cells were resuspended in 0.5 mL of PI solution, cultured at 37 °C in the dark for 30 min, and then cultured at 4 °C in the dark for another 30 min Finally, the cell cycle sample was determined with a flow cytometer (Cytek Northern Light 3 laser 16V-14B-8R, Wuxi, China). The experiments were replicated three times.

VEGFR-2 = conditions: reported chalcone VEGFR-2 inhibitors, Figure 1; cited from earlier work
[9] = K562, 1.25, 2.5 and 5.0 μM, 24 h

T1 sequence (P35968 20-1356): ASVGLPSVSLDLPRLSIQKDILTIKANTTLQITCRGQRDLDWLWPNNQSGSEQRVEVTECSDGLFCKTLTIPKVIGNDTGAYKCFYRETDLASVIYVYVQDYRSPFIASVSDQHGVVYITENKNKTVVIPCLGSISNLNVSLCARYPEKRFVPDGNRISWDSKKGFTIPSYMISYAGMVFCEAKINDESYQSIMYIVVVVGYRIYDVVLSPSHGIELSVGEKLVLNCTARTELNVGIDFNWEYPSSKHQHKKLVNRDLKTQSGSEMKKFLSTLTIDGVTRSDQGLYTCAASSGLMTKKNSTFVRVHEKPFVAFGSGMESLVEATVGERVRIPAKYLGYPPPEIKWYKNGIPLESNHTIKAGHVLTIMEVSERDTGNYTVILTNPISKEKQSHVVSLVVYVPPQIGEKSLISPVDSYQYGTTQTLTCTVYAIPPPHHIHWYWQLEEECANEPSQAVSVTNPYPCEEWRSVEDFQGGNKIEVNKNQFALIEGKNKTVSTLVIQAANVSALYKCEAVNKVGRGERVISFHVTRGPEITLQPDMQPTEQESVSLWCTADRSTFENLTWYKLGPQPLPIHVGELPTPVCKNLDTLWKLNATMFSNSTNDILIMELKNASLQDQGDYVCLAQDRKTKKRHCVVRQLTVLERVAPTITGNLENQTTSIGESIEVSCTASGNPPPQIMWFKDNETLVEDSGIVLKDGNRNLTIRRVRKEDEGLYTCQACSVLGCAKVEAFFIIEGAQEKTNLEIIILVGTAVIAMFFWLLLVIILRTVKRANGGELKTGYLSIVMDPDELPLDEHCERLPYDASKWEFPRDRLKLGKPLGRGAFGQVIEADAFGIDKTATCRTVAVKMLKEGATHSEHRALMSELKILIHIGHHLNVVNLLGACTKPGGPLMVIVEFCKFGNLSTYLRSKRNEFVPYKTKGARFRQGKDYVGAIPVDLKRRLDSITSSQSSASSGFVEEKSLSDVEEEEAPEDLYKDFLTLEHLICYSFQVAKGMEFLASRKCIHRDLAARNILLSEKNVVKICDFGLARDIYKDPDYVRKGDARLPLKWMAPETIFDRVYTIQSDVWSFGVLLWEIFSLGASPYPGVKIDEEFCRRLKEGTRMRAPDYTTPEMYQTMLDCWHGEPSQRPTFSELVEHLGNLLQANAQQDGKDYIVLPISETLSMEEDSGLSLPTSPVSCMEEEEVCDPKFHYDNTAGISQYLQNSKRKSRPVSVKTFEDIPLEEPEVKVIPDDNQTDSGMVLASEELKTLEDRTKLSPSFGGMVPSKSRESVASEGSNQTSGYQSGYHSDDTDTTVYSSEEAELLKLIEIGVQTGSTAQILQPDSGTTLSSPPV

SMILES: O=C(Nc1ccc(C(=O)/C=C/c2cc(F)cc(F)c2)cc1)Nc1ccc(Cl)c(C(F)(F)F)c1 [Compound 2l, (E)-1-(4-chloro-3-(trifluoromethyl)phenyl)-3-(4-(3-(3,5-difluorophenyl)acryloyl)phenyl)urea]
- IC50 [1]: 1250 ± 130 nM
- IC50 ([1]; Homo sapiens, SiHa, 48 h): 1250 to 1390 nM
- IC50 [2]: 1300 ± 70 nM
- IC50 ([2]; Homo sapiens, K562, 48 h): 910 ± 70 nM
- IC50 [3]: 1390 ± 210 nM
- IC50 ([3]; Mus musculus, B16, 48 h): 1250 to 1390 nM
- selectivity ratio at 48 h ([4]; human (HK-2), mouse (B16), HK-2 cells versus B16 cells, HK-2 vs B16, read-out: selectivity toward B16, fold decrease in cytotoxicity against HK-2): 18.2
- selectivity ratio at 48 h ([4]; human, HK-2 cells versus K562 cells, HK-2 vs K562, read-out: selectivity toward K562, fold decrease in cytotoxicity against HK-2): 19.5
- selectivity ratio at 48 h ([4]; human, HK-2 cells versus SiHa cells, HK-2 vs SiHa, read-out: selectivity toward SiHa, fold decrease in cytotoxicity against HK-2): 20.3
- IC50 [5]: 25400 ± 1470 nM
- IC50 [6]: 420 ± 30 nM
- viability at 1.25 µM (K562 cells [7]; Homo sapiens, K562, 1.25 μM, plot in Figure 2, read-out: Q4 viable cells): 92.8%
- viability at 2.5 µM (K562 cells [7]; Homo sapiens, K562, 2.5 μM, plot in Figure 2, read-out: Q4 viable cells): 90.5%
- viability at 5 µM (K562 cells [7]; Homo sapiens, K562, 5.0 μM, plot in Figure 2, read-out: Q4 viable cells): 38.8%
- early apoptosis (K562 cells [7]; K562, 1.25 μM, 24 h): 5.80%
- early apoptosis (K562 cells [7]; K562, 2.5 μM, 24 h): 8.34%
- early apoptosis (K562 cells [7]; K562, 5.0 μM, 24 h): 57.79%
- late apoptosis (K562 cells [7]; [9]): increased in a dose-dependent manner
- necrosis of K562 cells (K562 cells [7]; [9]): Almost no necrosis
- percentage of K562 cells in the G2/M phase (K562 cells [8]; DMSO 8.00%): 3.05%
- percentage of K562 cells in the S phase (K562 cells [8]; DMSO 43.34%): 43.83%
- percentage of K562 cells in the G1 phase (K562 cells [8]; DMSO 48.66%): 53.12%

SMILES: CNC(=O)c1cc(Oc2ccc(C(=O)/C=C/c3cc(OC)c(OC)c(OC)c3)cc2)ccn1 [II]
- IC50 (VEGFR-2): 3200 nM

SMILES: COc1cc(/C=C/C(=O)c2ccc(N3CCNCC3)cc2)ccc1F [I]
- IC50 (VEGFR-2): 570 nM
